# Source: patent US20260345605A1, “THERAPEUTIC AGENTS FOR HEART FAILURE” (Ottawa Hospital Research Institute, priority 2023, published 2026)
# Legend:
# [1] = system: iPS cell-derived cardiomyocytes (iCell Cardiomyocytes); assay: Secondary screening: morphometric analysis of iCell Cardiomyocytes; format: cell-based, human
# Description: A library of 800 small molecule compounds that can stimulate favorable cardiac adaptation in primary neonatal rat ventricular myocytes (NRVM) was screened. To identify the beneficial modifiers of hypertrophy, the Cellomics Arrayscan High Throughput Screening platform was employed to quantify morphometric features such as, for example, length, width, and length to width ratio from images acquired using a 10× lens for DAPI-labeled nuclei and CY3 labeled α actinin stained cardiomyocytes in a 96 well format. The lead compound was also screened in iPSC derived cardiomyocytes as a part of secondary screening as it offers a physiologically relevant human cell-based model.
# (§1) A secondary screening was performed with 10 drugs identified from primary screening for their ability to induce physiological remodeling using morphometric analysis and measuring the levels of B-type natriuretic peptide (BNP), as a surrogate indicator of the hypertrophic response using ELISA. The compounds were selected based on the highly enriched targets identified in the drug set enrichment analysis with a high Z score. Cryopreserved iPS cell-derived cardiomyocytes (“iCell Cardiomyocytes”) obtained from Cellular Dynamics International (CDI, Madison, WI) were used as a cell model to perform the screening.
# The cells were plated at a density of 2.5×10^4 cells onto 25 mm diameter fibronectin coated glass coverslips in plating media for 48 hours. The media was replaced with Supplemented William's E (SWE) medium (SWE) media supplemented with cocktail containing penicillin-streptomycin, ITS+(insulin, transferrin, selenium complex, BSA, and linoleic acid), GlutaMAX™, and HEPES (Primary Hepatocyte Maintenance Supplements-GIBCO) for 48 hours. The cells were treated with controls (CT1-40 ng/mL, PE-100 uM) and drugs (AZD1152-HQPA, LY283519) at varying concentrations (2.5, 1, 0.5, and 0.25 uM) for 24 hours.
# Post treatments, the cells were washed, fixed and treated with primary antibody, secondary antibody similar to the protocol of Example 3. The effect on the morphometric parameters was assessed using Cellomics Arrayscan Vti HCS reader. The Image acquisition was performed using the Zeiss AxioVision SE64 Imaging software and analyzed using the ImageJ2 software.
# iCell cardiomyocytes were seeded at a density of 10,000 cells per well in a 96 well plate format. The cells were maintained as in Example 3 and were treated with controls (hCT1, PE) and drugs (AZD1152-HQPA, LY283519) at four different concentrations for 24 hours. The cells were then fixed and stained with a Actinin for cardiomyocytes followed by nuclear staining with DAPI. The plates were analyzed in Cellomics Arrayscan Vti HCS reader to assess morphometric changes following treatment.
# collagen type I = assay: Collagen type I immunofluorescence in NRVM; format: cell-based, neonatal rat
# Method: Primary NRVMs were seeded at a density of 2.7×10^5 cells directly onto 25 mm diameter collagen-coated glass coverslips. The treatments with control (PE) and drugs LY283519 were performed for 24 hours. […] Post treatment, the cells were washed three times in PBS followed by fixation in 4% paraformaldehyde for 30 min. Cells were then permeabilized in blocking buffer (1% bovine serum albumin (BSA), 2% normal goat serum, 0.4% Tx-100 in PBS) for 15 min and were incubated for 2 h at room temperature with primary a Actinin and collagen type I antibody, followed by three successive washes in PBS in a humidified chamber. Cells were then blocked again in blocking buffer for 15 min followed by a 1-hour incubation in fluorescently conjugated secondary antibody. Cells were then washed again in PBS and the nuclei were counterstained with 4′,6-diamidino-2-phenylindole (DAPI). The cells were mounted onto microscope slides with Dako Cytomation fluorescent mounting medium (Dako). Digital fluorescent images were obtained using the Zeiss AxioVision SE64 Imaging software and analyzed using ImageJ2 software.
# cardiomyocytes (NRVMs) = assay: Oxygen consumption rate of cardiomyocytes (Seahorse Mito Stress Test); format: cell-based, neonatal rat; settings: 24 h treatment; vs untreated control; FIG. 12
# Method: OCR detection of cardiomyocytes was conducted with the Seahorse Xfe 24 analyzer (Agilent, Santa Clara, USA). Cardiomyocytes were seeded at a density of 8×10^4/well in a special Seahorse 24-well plate (102342-100, Seahorse). After treating with hCT1, PE and drug for 24 h, the medium was replaced with XF medium containing 10 mM D-(+)-glucose (G7021, Sigma-Aldrich), and 1 mM sodium pyruvate (11360070, Thermo Fisher). The plates were placed in a CO2-free 37 °C incubator for an hour before the measurement. A Seahorse XF Cell Mito Stress Test Kit (103015-100, Seahorse) was used for detection. The basal respiration of the NRVMs was detected, and ATP-linked OCR was analyzed after treatment with 1 μM oligomycin (ATP synthase inhibitor). Then, the uncoupling agent carbonyl [COMPOUND LEFT OUT] 4-(trifluoromethoxy) phenylhydrazone (FCCP) 0.5 μM was injected to detect maximal respiration. Finally, rotenone and antimycin A (AR) were used to abolish mitochondrial respiration by inhibiting complexes I and III, respectively.
# [2] = system: NT Pro-BNP (iCell Cardiomyocyte); assay: NT Pro-BNP ELISA in iCell Cardiomyocyte supernatants; format: cell-based, human; settings: 24 hour; for Mean NT Pro-BNP levels: iCell Cardiomyocyte, UT 2407.521; for Pro-NT BNP levels compared to UT and CT1 treated cells: iCell cardiomyocytes
# Method: as §1
# Pro-NT BNP levels in the culture media were measured following the 24 hour treatment using the Human NT Pro-BNP DuoSet ELISA kit (R&D Systems, Minnesota USA) as per the manufacturer's instruction. […] The plates were read on BMG BioTek Molecular Devices SpectraMax Microplate Reader at 450 nm to obtain the optical density followed by reading at 540 nm for wavelength correction.
# Protein levels were identified by plotting a 4 parametric logistic regression curve using the standards provided with the kit.
# [3] = system: phenylephrine induced left ventricular hypertrophy; assay: Phenylephrine-induced left ventricular hypertrophy rat model: heart weight and echocardiography; format: in vivo, Sprague Dawley rat
# Method: Animal Model Preparation. Sprague Dawley rats were continuously treated with phenylephrine (PE), an α-adrenergic agonist that causes vasoconstriction leading to increased afterload and decreased ventricular function, to create a left-ventricular dysfunction animal model. […] For chronic infusion of phenylephrine, Alzet® mini-osmotic pumps (2002, Durect® Corp) containing Phenylephrine (PE) (10 mg/kg/day) or PBS vehicle were surgically implanted dorsally and subcutaneously in each Sprague Dawley rat under isoflurane anaesthesia. The animals were allowed to develop left ventricular hypertrophy for 2 weeks following the osmotic pump implantation.
# Echocardiography was performed, the animals were sacrificed at 3 weeks endpoint and the blood and tissue were harvested for further analysis.
# [4] = single treatment, 24 hours, vs control
# [5] = LY2835219 alone and in rats subjected to phenylephrine
# [6] = PE treated rats, 3 weeks LY2835219 75 mg/kg/day oral
# [7] = systole and diastole, PE compared to control and LY2835219 group
smiles,measurement,setting,value
CCN1CCN(Cc2ccc(Nc3ncc(F)c(-c4cc(F)c5nc(C)n(C(C)C)c5c4)n3)nc2)CC1 [LY2835219],Mean Cardiomyocyte Length,"[1]; iCell Cardiomyocyte, drug 0.25 μm, 24 hours, UT 213.01323",221 µm
same,Mean Cardiomyocyte Length,"[1]; iCell Cardiomyocyte, drug 0.5 μm, 24 hours, UT 213.01323",239 µm
same,Mean Cardiomyocyte Length,"[1]; iCell Cardiomyocyte, drug 1 μm, 24 hours, UT 213.01323",242 µm
same,Mean Cardiomyocyte Length,"[1]; iCell Cardiomyocyte, drug 2.5 μm, 24 hours, UT 213.01323",245 µm
same,Eccentric cardiac remodeling,"[1]; iCell cardiomyocyte, 1 uM, FIG. 4A",Eccentric cardiac remodeling was observed
same,cardiomyocyte length compared with CT1 treated cells,"[1]; iCell cardiomyocytes on coverslips, 24 hours",comparable cardiomyocyte length
same,length in iCell cardiomyocyte compared to hCT1,"[1]; iCell cardiomyocytes, 96 well, four concentrations, 24 hours",increased length in iCell cardiomyocyte comparable to length induced by hCT1
same,expression of collagen type I,collagen type I; PE for 24 hrs followed by LY2835219 for 24 hrs,decreased expression of collagen type I
same,expression of collagen type I,collagen type I; [4],decrease in expression of collagen type I
same,oxygen consumption rate (OCR),cardiomyocytes (NRVMs),increase the rate of oxygen consumption
same,Mean NT Pro-BNP levels,[2]; drug 0.25 μm,1232.484 pg/mL
same,Mean NT Pro-BNP levels,[2]; drug 0.5 μm,1226.226 pg/mL
same,Mean NT Pro-BNP levels,[2]; drug 2.5 μm,1747.475 pg/mL
same,Pro-NT BNP levels compared to UT and CT1 treated cells,[2],comparable and/or reduced BNP levels
same,effect in phenylephrine induced left ventricular hypertrophy,"[3]; LY2835219 75 mg/kg/day oral, 3 weeks",anti-hypertrophic effect
same,cardiac output,[3]; [5],improved
same,ejection fraction,[3]; [5],improved
same,fractional shortening,[3]; [5],improved
same,stroke volume,[3]; [5],improved
same,PE effect on left ventricular internal diameter,"[3]; PE 2 weeks followed by LY2835219 3 weeks, 75 mg/kg/day oral",reversed
same,"cardiac function (ejection fraction, fractional shortening, stroke volume, cardiac output)","[3]; PE treated rats subjected to LY2835219 for 3 weeks, compared with control rats and PE treated rats",significantly enhanced cardiac function
same,PE effect on thickness of left ventricular anterior wall,[3]; [6],reversed
same,PE effect on thickness of left ventricular posterior wall,[3]; [6],reversed
same,PE effect on thickness of septal wall,[3]; [6],reversed
"CNC[C@H](O)c1cccc(O)c1 [PE, phenylephrine]",Mean Cardiomyocyte Length,"[1]; 24 h, 100 µM",191 µm
same,expression of collagen type I,collagen type I; [4],increased expression of type I collagen compared to control
same,oxygen consumption rate (OCR),cardiomyocytes (NRVMs),reduced oxygen consumption rate
same,Mean NT Pro-BNP levels,[2]; control PE,3236.015 pg/mL
same,Pro-NT BNP levels compared to UT and CT1 treated cells,[2],significantly elevated levels
same,Heart Weight/Body Weight ratio,"[3]; PE 10 mg/kg/day, compared to sham (PBS), LY2835219 alone, and PE 2 weeks followed by 3 weeks LY2835219",significantly increased
same,heart size (whole heart image),"[3]; PE treated group compared to control and drug treatment group, FIG. 14",enlarged
same,cardiac output,"[3]; PE treated rats, after 2 weeks",decreased
same,ejection fraction,"[3]; PE treated rats, after 2 weeks",decreased
same,percentage fractional shortening,"[3]; PE treated rats, after 2 weeks",decreased
same,stroke volume,"[3]; PE treated rats, after 2 weeks",decreased
same,left ventricular internal diameter,[3]; PE treatment group,reduced
same,thickness of left ventricular anterior wall,[3]; [7],increased thickness
same,thickness of left ventricular posterior wall,[3]; [7],increased thickness
same,thickness of septal wall,[3]; [7],increased thickness
